Experimental data: publication PMC8909834, “An Orally Bioavailable and Highly Efficacious Inhibitor of CDK9/FLT3 for the Treatment of Acute Myeloid Leukemia” (Cancers, 2022)

Columns and labels:
Assay in all cases: Kinase Hotspot radiolabel assay
Format in all cases: biochemical
Details in all cases: read-out: % Residual Activity
STK16 = target: T1, STK16 (Homo sapiens, UniProt O75716)
T1 construct: purchased Reaction Biology Corporation (Kinase HotSpot)
In short: (§1)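 Inhibition measured by a radiolabel Hotspot kinase assay as part of a 369-kinase specificity panel, with the compound at 1 µM. Kinases inhibited by more than 90% went on to Ki determination.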

CDK6/cyclin D3 = target: T2, CDK6/cyclin D3 (Homo sapiens, UniProt Q00534)
T2 construct: purchased Reaction Biology Corporation (Kinase HotSpot)
In short: as §1

LRRK2 = target: T3, LRRK2 (Homo sapiens, UniProt Q5S007)
T3 construct: purchased Reaction Biology Corporation (Kinase HotSpot)
In short: as §1

ERBB2/HER2 = target: T4, ERBB2/HER2 (Homo sapiens, UniProt P04626)
T4 construct: purchased Reaction Biology Corporation (Kinase HotSpot)
T4 sequence (P04626 23-1255): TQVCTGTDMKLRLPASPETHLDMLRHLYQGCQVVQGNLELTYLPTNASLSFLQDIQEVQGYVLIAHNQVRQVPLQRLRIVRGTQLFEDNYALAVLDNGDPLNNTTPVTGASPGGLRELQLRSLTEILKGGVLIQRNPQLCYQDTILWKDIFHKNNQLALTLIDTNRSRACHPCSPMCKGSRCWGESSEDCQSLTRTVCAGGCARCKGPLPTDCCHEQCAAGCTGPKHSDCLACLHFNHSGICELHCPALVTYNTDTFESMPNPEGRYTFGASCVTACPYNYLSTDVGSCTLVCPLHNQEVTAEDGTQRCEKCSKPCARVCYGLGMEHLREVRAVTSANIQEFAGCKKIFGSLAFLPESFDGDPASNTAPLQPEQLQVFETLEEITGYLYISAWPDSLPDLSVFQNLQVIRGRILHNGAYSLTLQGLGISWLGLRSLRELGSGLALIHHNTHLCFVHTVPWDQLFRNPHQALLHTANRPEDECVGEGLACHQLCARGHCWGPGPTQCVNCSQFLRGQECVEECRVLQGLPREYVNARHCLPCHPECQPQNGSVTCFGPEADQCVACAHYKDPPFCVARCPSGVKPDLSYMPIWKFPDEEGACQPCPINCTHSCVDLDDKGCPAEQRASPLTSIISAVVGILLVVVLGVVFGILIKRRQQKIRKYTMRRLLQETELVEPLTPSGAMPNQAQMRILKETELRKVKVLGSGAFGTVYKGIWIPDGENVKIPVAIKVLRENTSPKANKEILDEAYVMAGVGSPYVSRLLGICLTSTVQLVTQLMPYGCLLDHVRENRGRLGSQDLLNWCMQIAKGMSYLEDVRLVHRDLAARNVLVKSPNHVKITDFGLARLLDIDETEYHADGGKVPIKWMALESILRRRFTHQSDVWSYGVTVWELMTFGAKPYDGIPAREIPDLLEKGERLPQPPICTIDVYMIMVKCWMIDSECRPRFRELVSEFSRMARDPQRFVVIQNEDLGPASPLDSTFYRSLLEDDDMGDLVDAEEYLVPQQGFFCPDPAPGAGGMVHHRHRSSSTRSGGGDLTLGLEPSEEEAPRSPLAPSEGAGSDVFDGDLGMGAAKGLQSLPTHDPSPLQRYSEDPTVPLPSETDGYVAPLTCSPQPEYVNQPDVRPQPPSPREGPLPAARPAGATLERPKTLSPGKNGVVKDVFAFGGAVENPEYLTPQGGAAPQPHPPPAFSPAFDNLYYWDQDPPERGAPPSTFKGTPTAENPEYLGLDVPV
In short: as §1

FES/FPS = target: T5, FES/FPS (Homo sapiens, UniProt P07332)
T5 construct: purchased Reaction Biology Corporation (Kinase HotSpot)
In short: as §1

RET = target: T6, RET (Homo sapiens, UniProt P07949)
T6 construct: purchased Reaction Biology Corporation (Kinase HotSpot)
In short: as §1

MLCK/MYLK = target: T7, MLCK/MYLK (Homo sapiens, UniProt Q15746)
T7 construct: purchased Reaction Biology Corporation (Kinase HotSpot)
In short: as §1

AKT1 = target: T8, AKT1 (Homo sapiens, UniProt P31749)
T8 construct: purchased Reaction Biology Corporation (Kinase HotSpot)
In short: as §1

CDK4/cyclin D1 = target: T9, CDK4/cyclin D1 (Homo sapiens, UniProt P11802)
T9 construct: purchased Reaction Biology Corporation (Kinase HotSpot)
In short: as §1

LYN B = target: T10, LYN B (Homo sapiens, UniProt P07948)
T10 construct: purchased Reaction Biology Corporation (Kinase HotSpot)
In short: as §1

GRK7 = target: T11, GRK7 (Homo sapiens, UniProt Q8WTQ7)
T11 construct: purchased Reaction Biology Corporation (Kinase HotSpot)
In short: as §1

NEK6 = target: T12, NEK6 (Homo sapiens, UniProt Q9HC98)
T12 construct: purchased Reaction Biology Corporation (Kinase HotSpot)
In short: as §1

MST3/STK24 = target: T13, MST3/STK24 (Homo sapiens, UniProt Q9Y6E0)
T13 construct: purchased Reaction Biology Corporation (Kinase HotSpot)
In short: as §1

RIPK3 = target: T14, RIPK3 (Homo sapiens, UniProt Q9Y572)
T14 construct: purchased Reaction Biology Corporation (Kinase HotSpot)
T14 sequence (Q9Y572 whole entry): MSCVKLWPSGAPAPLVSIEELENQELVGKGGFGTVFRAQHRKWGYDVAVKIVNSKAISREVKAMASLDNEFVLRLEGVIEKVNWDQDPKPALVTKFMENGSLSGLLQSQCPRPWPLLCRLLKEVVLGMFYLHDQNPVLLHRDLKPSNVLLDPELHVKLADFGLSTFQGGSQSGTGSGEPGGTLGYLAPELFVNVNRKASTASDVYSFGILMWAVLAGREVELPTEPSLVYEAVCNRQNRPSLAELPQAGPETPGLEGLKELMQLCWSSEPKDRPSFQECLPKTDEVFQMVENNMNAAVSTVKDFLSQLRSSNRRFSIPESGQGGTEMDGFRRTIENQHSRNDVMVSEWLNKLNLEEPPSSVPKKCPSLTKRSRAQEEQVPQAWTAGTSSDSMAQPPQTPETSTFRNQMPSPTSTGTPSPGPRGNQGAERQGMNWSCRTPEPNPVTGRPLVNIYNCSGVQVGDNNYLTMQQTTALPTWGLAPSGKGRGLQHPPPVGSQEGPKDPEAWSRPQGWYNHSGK
In short: as §1

NEK3 = target: T15, NEK3 (Homo sapiens, UniProt P51956)
T15 construct: purchased Reaction Biology Corporation (Kinase HotSpot)
In short: as §1

TNIK = target: T16, TNIK (Homo sapiens, UniProt Q9UKE5)
T16 construct: purchased Reaction Biology Corporation (Kinase HotSpot)
In short: as §1

SSTK/TSSK6 = target: T17, SSTK/TSSK6 (Homo sapiens, UniProt Q9BXA6)
T17 construct: purchased Reaction Biology Corporation (Kinase HotSpot)
T17 sequence (Q9BXA6 whole entry): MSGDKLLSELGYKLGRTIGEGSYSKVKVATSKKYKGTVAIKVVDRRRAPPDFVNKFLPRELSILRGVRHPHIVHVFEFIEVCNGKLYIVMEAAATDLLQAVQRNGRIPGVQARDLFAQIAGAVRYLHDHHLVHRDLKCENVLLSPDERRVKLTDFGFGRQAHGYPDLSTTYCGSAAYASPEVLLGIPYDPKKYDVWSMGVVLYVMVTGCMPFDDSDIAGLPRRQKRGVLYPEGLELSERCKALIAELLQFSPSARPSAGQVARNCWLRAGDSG
In short: as §1

PDK1/PDPK1 = target: T18, PDK1/PDPK1 (Homo sapiens, UniProt O15530)
T18 construct: purchased Reaction Biology Corporation (Kinase HotSpot)
In short: as §1

PKCb1 = target: T19, PKCb1 (Homo sapiens, UniProt P05771)
T19 construct: purchased Reaction Biology Corporation (Kinase HotSpot)
In short: as §1

PIM1 = target: T20, PIM1 (Homo sapiens, UniProt P11309)
T20 construct: purchased Reaction Biology Corporation (Kinase HotSpot)
T20 sequence (P11309 whole entry): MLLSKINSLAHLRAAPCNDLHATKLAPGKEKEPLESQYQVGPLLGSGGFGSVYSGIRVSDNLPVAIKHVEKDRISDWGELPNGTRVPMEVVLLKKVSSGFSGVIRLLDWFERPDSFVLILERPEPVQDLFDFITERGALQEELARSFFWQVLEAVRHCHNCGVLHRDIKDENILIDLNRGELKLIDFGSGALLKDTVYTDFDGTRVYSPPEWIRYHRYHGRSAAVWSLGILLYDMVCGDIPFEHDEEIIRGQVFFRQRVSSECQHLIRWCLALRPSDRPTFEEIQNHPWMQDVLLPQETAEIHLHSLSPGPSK
In short: as §1

LATS1 = target: T21, LATS1 (Homo sapiens, UniProt O95835)
T21 construct: purchased Reaction Biology Corporation (Kinase HotSpot)
In short: as §1

RSK1 = target: T22, RSK1 (Homo sapiens, UniProt Q15418)
T22 construct: purchased Reaction Biology Corporation (Kinase HotSpot)
T22 sequence (Q15418 whole entry): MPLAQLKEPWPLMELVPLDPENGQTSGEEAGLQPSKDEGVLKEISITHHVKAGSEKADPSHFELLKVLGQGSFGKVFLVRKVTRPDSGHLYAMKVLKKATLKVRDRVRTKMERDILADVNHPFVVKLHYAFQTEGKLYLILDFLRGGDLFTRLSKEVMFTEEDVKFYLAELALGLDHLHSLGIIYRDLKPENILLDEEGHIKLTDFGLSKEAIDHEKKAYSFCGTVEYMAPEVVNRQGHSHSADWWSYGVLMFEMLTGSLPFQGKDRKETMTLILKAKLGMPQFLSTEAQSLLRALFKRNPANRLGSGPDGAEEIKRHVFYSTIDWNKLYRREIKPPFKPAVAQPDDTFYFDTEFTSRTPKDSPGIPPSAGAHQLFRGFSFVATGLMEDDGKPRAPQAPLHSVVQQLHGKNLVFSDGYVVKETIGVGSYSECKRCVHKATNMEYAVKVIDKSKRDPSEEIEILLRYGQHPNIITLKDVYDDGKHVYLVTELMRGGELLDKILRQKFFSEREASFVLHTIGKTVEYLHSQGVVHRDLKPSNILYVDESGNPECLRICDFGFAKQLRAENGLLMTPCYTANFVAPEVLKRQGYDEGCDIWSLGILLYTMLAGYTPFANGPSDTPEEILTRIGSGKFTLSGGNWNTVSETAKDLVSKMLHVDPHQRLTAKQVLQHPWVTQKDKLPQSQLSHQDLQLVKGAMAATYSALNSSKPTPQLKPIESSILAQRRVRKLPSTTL
In short: as §1

EPHA2 = target: T23, EPHA2 (Homo sapiens, UniProt P29317)
T23 construct: purchased Reaction Biology Corporation (Kinase HotSpot)
In short: as §1

SGK3/SGKL = target: T24, SGK3/SGKL (Homo sapiens, UniProt Q96BR1)
T24 construct: purchased Reaction Biology Corporation (Kinase HotSpot)
T24 sequence (Q96BR1 whole entry): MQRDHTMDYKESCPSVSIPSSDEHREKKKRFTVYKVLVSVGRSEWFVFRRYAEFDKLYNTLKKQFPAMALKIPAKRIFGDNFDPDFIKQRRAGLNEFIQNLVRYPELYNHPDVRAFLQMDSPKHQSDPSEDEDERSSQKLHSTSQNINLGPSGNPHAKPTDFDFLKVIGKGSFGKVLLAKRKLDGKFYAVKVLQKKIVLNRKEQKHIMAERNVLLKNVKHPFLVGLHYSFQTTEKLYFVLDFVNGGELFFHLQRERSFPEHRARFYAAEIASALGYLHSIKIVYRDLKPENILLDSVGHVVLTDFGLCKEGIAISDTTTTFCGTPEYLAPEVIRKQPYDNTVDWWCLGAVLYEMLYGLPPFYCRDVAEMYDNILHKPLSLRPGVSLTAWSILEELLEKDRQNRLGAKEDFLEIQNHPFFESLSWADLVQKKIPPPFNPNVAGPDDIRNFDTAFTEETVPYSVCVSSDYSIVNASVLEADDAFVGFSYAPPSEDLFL
In short: as §1

IKKe/IKBKE = target: T25, IKKe/IKBKE (Homo sapiens, UniProt Q14164)
T25 construct: purchased Reaction Biology Corporation (Kinase HotSpot)
In short: as §1

FGFR3 = target: T26, FGFR3 (Homo sapiens, UniProt P22607)
T26 construct: purchased Reaction Biology Corporation (Kinase HotSpot)
In short: as §1

MEK1 = target: T27, MEK1 (Homo sapiens, UniProt Q02750)
T27 construct: purchased Reaction Biology Corporation (Kinase HotSpot)
T27 sequence (Q02750 whole entry): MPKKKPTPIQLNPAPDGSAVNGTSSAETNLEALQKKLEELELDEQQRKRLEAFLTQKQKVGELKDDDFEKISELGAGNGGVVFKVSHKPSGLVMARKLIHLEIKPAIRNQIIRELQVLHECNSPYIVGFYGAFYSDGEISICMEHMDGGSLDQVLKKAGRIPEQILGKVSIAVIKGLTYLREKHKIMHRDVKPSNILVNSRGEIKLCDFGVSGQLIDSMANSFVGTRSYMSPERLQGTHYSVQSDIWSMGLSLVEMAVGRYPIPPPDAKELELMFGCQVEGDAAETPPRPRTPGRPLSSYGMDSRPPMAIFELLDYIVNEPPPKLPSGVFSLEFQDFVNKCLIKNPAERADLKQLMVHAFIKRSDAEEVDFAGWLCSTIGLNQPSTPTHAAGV
In short: as §1

BMX/ETK = target: T28, BMX/ETK (Homo sapiens, UniProt P51813)
T28 construct: purchased Reaction Biology Corporation (Kinase HotSpot)
In short: as §1

IGF1R = target: T29, IGF1R (Homo sapiens, UniProt P08069)
T29 construct: purchased Reaction Biology Corporation (Kinase HotSpot)
In short: as §1

IKKb/IKBKB = target: T30, IKKb/IKBKB (Homo sapiens, UniProt O14920)
T30 construct: purchased Reaction Biology Corporation (Kinase HotSpot)
T30 sequence (O14920 whole entry): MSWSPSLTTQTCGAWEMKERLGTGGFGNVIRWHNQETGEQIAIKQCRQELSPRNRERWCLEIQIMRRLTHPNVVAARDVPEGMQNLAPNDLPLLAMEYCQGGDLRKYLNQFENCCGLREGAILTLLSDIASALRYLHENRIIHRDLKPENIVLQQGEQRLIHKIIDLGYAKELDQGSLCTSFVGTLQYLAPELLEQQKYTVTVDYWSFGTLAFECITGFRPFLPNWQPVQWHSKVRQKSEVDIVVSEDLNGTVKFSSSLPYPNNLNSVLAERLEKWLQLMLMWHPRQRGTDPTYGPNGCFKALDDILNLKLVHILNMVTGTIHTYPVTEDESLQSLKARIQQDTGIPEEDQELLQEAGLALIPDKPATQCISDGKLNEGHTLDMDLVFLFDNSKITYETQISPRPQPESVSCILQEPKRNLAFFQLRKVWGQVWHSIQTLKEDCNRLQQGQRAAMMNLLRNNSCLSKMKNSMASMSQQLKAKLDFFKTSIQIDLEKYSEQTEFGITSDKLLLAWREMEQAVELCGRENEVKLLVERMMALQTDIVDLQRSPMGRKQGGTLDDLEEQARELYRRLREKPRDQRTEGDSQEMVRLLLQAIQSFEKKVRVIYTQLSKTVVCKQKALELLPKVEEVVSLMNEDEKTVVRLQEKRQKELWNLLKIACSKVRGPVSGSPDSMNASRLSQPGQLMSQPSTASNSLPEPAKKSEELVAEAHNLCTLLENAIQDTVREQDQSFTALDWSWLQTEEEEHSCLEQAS
In short: as §1

T1 sequence (O75716 whole entry): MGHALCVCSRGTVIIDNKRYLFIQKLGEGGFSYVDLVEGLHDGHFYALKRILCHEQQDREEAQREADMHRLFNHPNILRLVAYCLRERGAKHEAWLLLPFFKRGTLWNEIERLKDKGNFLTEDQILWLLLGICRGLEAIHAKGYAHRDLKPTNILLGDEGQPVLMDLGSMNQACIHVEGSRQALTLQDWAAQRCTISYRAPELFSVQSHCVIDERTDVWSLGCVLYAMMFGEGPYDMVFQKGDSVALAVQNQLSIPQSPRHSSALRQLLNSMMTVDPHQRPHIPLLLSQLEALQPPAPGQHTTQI

## Cc1cnc(N[C@H]2CC[C@H](N)CC2)nc1-c1cnc2ccc(-c3ccccc3)cn12 [CDDD11-8]
STK16
  remaining activity at 1 µM: 75.2%
CDK6/cyclin D3
  remaining activity at 1 µM: 96.6%
LRRK2
  remaining activity at 1 µM: 70.6%
ERBB2/HER2
  remaining activity at 1 µM: 101%
FES/FPS
  remaining activity at 1 µM: 86.2%
RET
  remaining activity at 1 µM: 84.4%
MLCK/MYLK
  remaining activity at 1 µM: 57.2%
AKT1
  remaining activity at 1 µM: 95%
CDK4/cyclin D1
  remaining activity at 1 µM: 89.3%
LYN B
  remaining activity at 1 µM: 88.5%
GRK7
  remaining activity at 1 µM: 70.7%
NEK6
  remaining activity at 1 µM: 96.2%
MST3/STK24
  remaining activity at 1 µM: 103%
RIPK3
  remaining activity at 1 µM: 97.5%
NEK3
  remaining activity at 1 µM: 92.8%
TNIK
  remaining activity at 1 µM: 4.38%
SSTK/TSSK6
  remaining activity at 1 µM: 79.1%
PDK1/PDPK1
  remaining activity at 1 µM: 105%
PKCb1
  remaining activity at 1 µM: 87.4%
PIM1
  remaining activity at 1 µM: 65%
LATS1
  remaining activity at 1 µM: 57.4%
RSK1
  remaining activity at 1 µM: 56.9%
EPHA2
  remaining activity at 1 µM: 86.4%
SGK3/SGKL
  remaining activity at 1 µM: 115%
IKKe/IKBKE
  remaining activity at 1 µM: 91.7%
FGFR3
  remaining activity at 1 µM: 92.8%
MEK1
  remaining activity at 1 µM: 98.9%
BMX/ETK
  remaining activity at 1 µM: 71.2%
IGF1R
  remaining activity at 1 µM: 79%
IKKb/IKBKB
  remaining activity at 1 µM: 78.1%
